Data published in PubChem BioAssay (NCI).
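These data come from cells grown in 96-well plates and exposed to compound for 48 hours at five concentrations. GI50 = concentration required for 50% inhibition of growth. TGI marks complete inhibition of growth.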

How the values were obtained:
Experiment in all cases: NCI-60 cell line screen, 48 h
786-0 renal = system: 786-0 renal
A498 renal = system: A498 renal
A549 NSCLC = system: A549 NSCLC
ACHN renal = system: ACHN renal
BT-549 breast = system: BT-549 breast
CAKI-1 renal = system: CAKI-1 renal
CCRF-CEM leukemia = system: CCRF-CEM leukemia
COLO 205 colon = system: COLO 205 colon
DU-145 prostate = system: DU-145 prostate
EKVX NSCLC = system: EKVX NSCLC
HCC-2998 colon = system: HCC-2998 colon
HCT-15 colon = system: HCT-15 colon
HL-60(TB) leukemia = system: HL-60(TB) leukemia
HOP-92 NSCLC = system: HOP-92 NSCLC
HS 578T breast = system: HS 578T breast
HT29 colon = system: HT29 colon
IGROV1 ovarian = system: IGROV1 ovarian
K-562 leukemia = system: K-562 leukemia
KM12 colon = system: KM12 colon
LOX IMVI melanoma = system: LOX IMVI melanoma
MALME-3M melanoma = system: MALME-3M melanoma
MCF7 breast = system: MCF7 breast
MDA-MB-231 breast = system: MDA-MB-231 breast
MDA-MB-435 = system: MDA-MB-435
MOLT-4 leukemia = system: MOLT-4 leukemia
NCI-H226 lung = system: NCI-H226 lung
NCI-H23 lung = system: NCI-H23 lung
NCI-H460 lung = system: NCI-H460 lung
NCI-H522 lung = system: NCI-H522 lung
NCI/ADR-RES ovarian = system: NCI/ADR-RES ovarian
OVCAR-3 ovarian = system: OVCAR-3 ovarian
OVCAR-4 ovarian = system: OVCAR-4 ovarian
OVCAR-5 ovarian = system: OVCAR-5 ovarian
OVCAR-8 ovarian = system: OVCAR-8 ovarian
RPMI-8226 leukemia = system: RPMI-8226 leukemia
RXF 393 renal = system: RXF 393 renal
SF-268 CNS = system: SF-268 CNS
SF-295 CNS = system: SF-295 CNS
SF-539 CNS = system: SF-539 CNS
SK-MEL-2 melanoma = system: SK-MEL-2 melanoma
SK-MEL-28 melanoma = system: SK-MEL-28 melanoma
SK-MEL-5 melanoma = system: SK-MEL-5 melanoma
SK-OV-3 ovarian = system: SK-OV-3 ovarian
SN12C renal = system: SN12C renal
SNB-19 CNS = system: SNB-19 CNS
SNB-75 CNS = system: SNB-75 CNS
SR leukemia = system: SR leukemia
SW-620 colon = system: SW-620 colon
T-47D breast = system: T-47D breast
TK-10 renal = system: TK-10 renal
U251 CNS = system: U251 CNS
UACC-257 melanoma = system: UACC-257 melanoma
UACC-62 melanoma = system: UACC-62 melanoma
UO-31 renal = system: UO-31 renal

CO[C@@H]1CC[C@]2(C)OC[C@H](C)[C@@H]3C[C@@H](C)[C@@H](OC(C)=O)[C@@H]4[C@H]3[C@@H]2O[C@H]4C[C@@]1(C)O
GI50 (786-0 renal): > 100 µM
TGI (786-0 renal): > 100 µM
GI50 (A498 renal): > 100 µM
TGI (A498 renal): > 100 µM
GI50 (A549 NSCLC): > 100 µM
TGI (A549 NSCLC): > 100 µM
GI50 (ACHN renal): > 100 µM
TGI (ACHN renal): > 100 µM
GI50 (BT-549 breast): > 100 µM
TGI (BT-549 breast): > 100 µM
GI50 (CAKI-1 renal): > 100 µM
TGI (CAKI-1 renal): > 100 µM
GI50 (CCRF-CEM leukemia): > 100 µM
TGI (CCRF-CEM leukemia): > 100 µM
GI50 (COLO 205 colon): > 100 µM
TGI (COLO 205 colon): > 100 µM
GI50 (DU-145 prostate): > 100 µM
TGI (DU-145 prostate): > 100 µM
GI50 (EKVX NSCLC): > 100 µM
TGI (EKVX NSCLC): > 100 µM
GI50 (HCC-2998 colon): > 100 µM
TGI (HCC-2998 colon): > 100 µM
GI50 (HCT-15 colon): > 100 µM
TGI (HCT-15 colon): > 100 µM
GI50 (HL-60(TB) leukemia): > 100 µM
TGI (HL-60(TB) leukemia): > 100 µM
GI50 (HOP-92 NSCLC): > 100 µM
TGI (HOP-92 NSCLC): > 100 µM
GI50 (HS 578T breast): > 100 µM
TGI (HS 578T breast): > 100 µM
GI50 (HT29 colon): > 100 µM
TGI (HT29 colon): > 100 µM
GI50 (IGROV1 ovarian): > 100 µM
TGI (IGROV1 ovarian): > 100 µM
GI50 (K-562 leukemia): > 100 µM
TGI (K-562 leukemia): > 100 µM
GI50 (KM12 colon): > 100 µM
TGI (KM12 colon): > 100 µM
GI50 (LOX IMVI melanoma): > 100 µM
TGI (LOX IMVI melanoma): > 100 µM
GI50 (MALME-3M melanoma): 63.9 µM
TGI (MALME-3M melanoma): > 100 µM
GI50 (MCF7 breast): > 100 µM
TGI (MCF7 breast): > 100 µM
GI50 (MDA-MB-231 breast): > 100 µM
TGI (MDA-MB-231 breast): > 100 µM
GI50 (MDA-MB-435): > 100 µM
TGI (MDA-MB-435): > 100 µM
GI50 (MOLT-4 leukemia): > 100 µM
TGI (MOLT-4 leukemia): > 100 µM
GI50 (NCI-H226 lung): > 100 µM
TGI (NCI-H226 lung): > 100 µM
GI50 (NCI-H23 lung): > 100 µM
TGI (NCI-H23 lung): > 100 µM
GI50 (NCI-H460 lung): > 100 µM
TGI (NCI-H460 lung): > 100 µM
GI50 (NCI-H522 lung): > 100 µM
TGI (NCI-H522 lung): > 100 µM
GI50 (NCI/ADR-RES ovarian): > 100 µM
TGI (NCI/ADR-RES ovarian): > 100 µM
GI50 (OVCAR-3 ovarian): 78.1 µM
TGI (OVCAR-3 ovarian): > 100 µM
GI50 (OVCAR-4 ovarian): > 100 µM
TGI (OVCAR-4 ovarian): > 100 µM
GI50 (OVCAR-5 ovarian): > 100 µM
TGI (OVCAR-5 ovarian): > 100 µM
GI50 (OVCAR-8 ovarian): > 100 µM
TGI (OVCAR-8 ovarian): > 100 µM
GI50 (RPMI-8226 leukemia): > 100 µM
TGI (RPMI-8226 leukemia): > 100 µM
GI50 (RXF 393 renal): > 100 µM
TGI (RXF 393 renal): > 100 µM
GI50 (SF-268 CNS): > 100 µM
TGI (SF-268 CNS): > 100 µM
GI50 (SF-295 CNS): > 100 µM
TGI (SF-295 CNS): > 100 µM
GI50 (SF-539 CNS): > 100 µM
TGI (SF-539 CNS): > 100 µM
GI50 (SK-MEL-2 melanoma): > 100 µM
TGI (SK-MEL-2 melanoma): > 100 µM
GI50 (SK-MEL-28 melanoma): > 100 µM
TGI (SK-MEL-28 melanoma): > 100 µM
GI50 (SK-MEL-5 melanoma): > 100 µM
TGI (SK-MEL-5 melanoma): > 100 µM
GI50 (SK-OV-3 ovarian): > 100 µM
TGI (SK-OV-3 ovarian): > 100 µM
GI50 (SN12C renal): > 100 µM
TGI (SN12C renal): > 100 µM
GI50 (SNB-19 CNS): > 100 µM
TGI (SNB-19 CNS): > 100 µM
GI50 (SNB-75 CNS): > 100 µM
TGI (SNB-75 CNS): > 100 µM
GI50 (SR leukemia): > 100 µM
TGI (SR leukemia): > 100 µM
GI50 (SW-620 colon): > 100 µM
TGI (SW-620 colon): > 100 µM
GI50 (T-47D breast): > 100 µM
TGI (T-47D breast): > 100 µM
GI50 (TK-10 renal): > 100 µM
TGI (TK-10 renal): > 100 µM
GI50 (U251 CNS): > 100 µM
TGI (U251 CNS): > 100 µM
GI50 (UACC-257 melanoma): > 100 µM
TGI (UACC-257 melanoma): > 100 µM
GI50 (UACC-62 melanoma): > 100 µM
TGI (UACC-62 melanoma): > 100 µM
GI50 (UO-31 renal): > 100 µM
TGI (UO-31 renal): > 100 µM

OC(c1cc2cc(Cl)ccc2c2cc(C(F)(F)F)ccc12)C1CCCCN1 (centres undefined)
GI50 (DU-145 prostate): 1.9 µM
TGI (DU-145 prostate): 3.37 µM
GI50 (HL-60(TB) leukemia): 1.92 µM
TGI (HL-60(TB) leukemia): 3.72 µM
GI50 (HOP-92 NSCLC): 1.42 µM
TGI (HOP-92 NSCLC): 2.97 µM
GI50 (OVCAR-5 ovarian): 1.48 µM
TGI (OVCAR-5 ovarian): 2.94 µM
GI50 (RPMI-8226 leukemia): 2.21 µM
TGI (RPMI-8226 leukemia): 4.92 µM
GI50 (SF-295 CNS): 1.96 µM
TGI (SF-295 CNS): 3.69 µM
GI50 (SNB-75 CNS): 1.69 µM
TGI (SNB-75 CNS): 3.14 µM
GI50 (UO-31 renal): 1.59 µM
TGI (UO-31 renal): 3.06 µM
